Assay results: ChEMBL document CHEMBL1147624, “Inhibitors of hepatitis C virus NS3.4A protease 2. Warhead SAR and optimization” (Bioorg Med Chem Lett, 2004)
pIC50, pKi: −log10 of the molar value. Where a SMILES comes first, the peptide text is derived from it. [ ]: non-standard residue; d: D form. The star is where a group is joined. Pyrazinecarbonyl = O=C(c1cnccn1)*; Hyp = O=C(O)[C@@H]1C[C@@H](O)CN1; Abu = CC[C@H](N)C(=O)O; Bn = c1ccc(C*)cc1

What was measured:
NS3 = NS3 (Hepatitis C virus, UniProt A3EZJ3); assay: Binding inhibition of hepatitis C virus NS3.4A protease 2 using p-nitroaniline assay (pNA); set-up: species or system Hepacivirus hominis
[1] = biological target: T1, Hepatitis C virus serine protease, NS3/NS4A (Hepatitis C virus, UniProt D2K2A8+A3EZI9); assay: Binding inhibition of hepatitis C virus NS3.4A protease 2 using a reverse phase HPLC based assay; format: protein-complex assay, Hepacivirus hominis
[2] = biological target: T1, Hepatitis C virus serine protease, NS3/NS4A; assay: Binding inhibition of hepatitis C virus NS3.4A protease 2 using p-nitroaniline assay (pNA); <0.2 (0.18); format: protein-complex assay, Hepacivirus hominis
[3] = biological target: T1, Hepatitis C virus serine protease, NS3/NS4A; assay: Binding inhibition of hepatitis C virus NS3.4A protease 2 using p-nitroaniline assay (pNA); <0.2 (0.10); format: protein-complex assay, Hepacivirus hominis
Huh-7 [4] = assay: Reduction of HCV RNA in 48 hr compound treated Huh 7 cells was determined by quantitative RT-PCR-based […] assay; format: functional; conditions: Homo sapiens, Huh-7, 48 h
Huh-7 [5] = assay: Cytotoxicity of compound was determined by MTS-based cell viability assay in Huh 7 cells; format: functional; conditions: Homo sapiens
[6] = biological target: T1, Hepatitis C virus serine protease, NS3/NS4A; assay: Binding inhibition of hepatitis C virus NS3.4A protease 2 using a reverse phase HPLC based assay; <0.2 (0.15); format: protein-complex assay, Hepacivirus hominis
[7] = biological target: T1, Hepatitis C virus serine protease, NS3/NS4A; assay: Binding inhibition of hepatitis C virus NS3.4A protease 2 using p-nitroaniline assay (pNA); <0.2 (0.15); format: protein-complex assay, Hepacivirus hominis
[8] = biological target: T1, Hepatitis C virus serine protease, NS3/NS4A; assay: Binding inhibition of hepatitis C virus NS3.4A protease 2 was determined; format: protein-complex assay, Hepacivirus hominis
[9] = biological target: T1, Hepatitis C virus serine protease, NS3/NS4A; assay: Binding inhibition of hepatitis C virus NS3.4A protease 2 using p-nitroaniline assay (pNA); <0.2 (0.03); format: protein-complex assay, Hepacivirus hominis

T1 sequence (D2K2A8 whole entry): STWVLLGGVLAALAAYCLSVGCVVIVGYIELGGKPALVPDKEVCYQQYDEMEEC
T1 sequence (A3EZI9 whole entry): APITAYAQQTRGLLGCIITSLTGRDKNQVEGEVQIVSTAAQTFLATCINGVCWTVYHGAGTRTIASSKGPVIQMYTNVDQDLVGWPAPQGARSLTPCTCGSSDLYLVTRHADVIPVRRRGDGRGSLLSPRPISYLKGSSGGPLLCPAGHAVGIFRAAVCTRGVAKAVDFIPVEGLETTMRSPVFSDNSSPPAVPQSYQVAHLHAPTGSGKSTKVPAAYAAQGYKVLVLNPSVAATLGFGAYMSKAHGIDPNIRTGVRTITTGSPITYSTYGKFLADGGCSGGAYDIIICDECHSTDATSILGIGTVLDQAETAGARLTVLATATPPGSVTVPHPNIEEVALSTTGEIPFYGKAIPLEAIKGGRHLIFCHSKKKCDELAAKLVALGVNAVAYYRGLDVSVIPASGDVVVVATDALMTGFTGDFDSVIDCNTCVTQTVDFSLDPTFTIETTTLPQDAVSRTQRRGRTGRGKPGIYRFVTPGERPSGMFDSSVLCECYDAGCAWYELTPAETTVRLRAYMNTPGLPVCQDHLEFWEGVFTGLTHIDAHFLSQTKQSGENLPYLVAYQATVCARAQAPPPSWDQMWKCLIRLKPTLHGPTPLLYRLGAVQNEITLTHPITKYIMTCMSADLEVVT
Chain of NS3 (A3EZJ3 whole entry): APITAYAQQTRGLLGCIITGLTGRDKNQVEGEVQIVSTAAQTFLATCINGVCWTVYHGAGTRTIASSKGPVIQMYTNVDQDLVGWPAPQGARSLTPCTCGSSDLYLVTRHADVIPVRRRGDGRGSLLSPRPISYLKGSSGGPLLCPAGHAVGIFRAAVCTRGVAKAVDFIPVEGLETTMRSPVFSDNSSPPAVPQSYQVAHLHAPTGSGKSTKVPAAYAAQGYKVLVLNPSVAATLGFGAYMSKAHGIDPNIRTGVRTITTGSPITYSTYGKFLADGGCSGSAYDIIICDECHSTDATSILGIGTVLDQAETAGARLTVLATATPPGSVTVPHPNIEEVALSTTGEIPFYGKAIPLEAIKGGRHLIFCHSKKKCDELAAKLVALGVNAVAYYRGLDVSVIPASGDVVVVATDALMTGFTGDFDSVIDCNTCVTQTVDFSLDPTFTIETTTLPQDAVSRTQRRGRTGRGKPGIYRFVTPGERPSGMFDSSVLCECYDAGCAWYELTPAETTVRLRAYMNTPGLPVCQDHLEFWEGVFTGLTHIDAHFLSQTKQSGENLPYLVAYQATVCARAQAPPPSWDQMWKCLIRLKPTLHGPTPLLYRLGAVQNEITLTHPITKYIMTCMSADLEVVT

pKi (NS3) | pIC50 (Huh-7 [4]) | Structure (SMILES) | CC50 (Huh-7 [5]) | other results
4.76 |  | CCC(NC(=O)[C@@H]1C[C@@H](OCc2ccccc2)CN1C(=O)[C@H](NC(=O)[C@H](NC(=O)c1cnccn1)C(C)C)C(C)C)C(=O)C(F)(F)C(F)(F)F (stereo partly drawn) |  | 
 | < 6.51 | CCCC(NC(=O)[C@@H]1C[C@@H](OC(=O)N2CCc3ccccc3C2)CN1C(=O)[C@H](NC(=O)[C@H](NC(=O)c1cnccn1)C(C)C)C(C)C)C(=O)C(=O)N[C@@H](C)c1ccccc1 (stereo partly drawn) | > 16 µM | pKi [3]: > 6.70; pIC50 [1]: 6.66
5.28 |  | CCCC(NC(=O)[C@@H]1C[C@@H](OC(=O)N2CCc3ccccc3C2)CN1C(=O)[C@H](NC(=O)[C@H](NC(=O)c1cnccn1)C(C)C)C(C)C)C(=O)C(=O)N(C)CC(=O)O (stereo partly drawn) |  | 
4.49 |  | CC[C@H](NC(=O)[C@@H]1C[C@@H](OCc2ccccc2)CN1C(=O)[C@@H](NC(=O)[C@@H](NC(=O)c1cnccn1)C(C)C)C(C)C)C(=O)C(=O)N1CCCC1 |  | 
6.10 | < 4.99 | CCCC(NC(=O)[C@@H]1C[C@@H](OC(=O)N2CCc3ccccc3C2)CN1C(=O)[C@H](NC(=O)[C@H](NC(=O)c1cnccn1)C(C)C)C(C)C)C(=O)C(=O)NC1CCC1 (stereo partly drawn) | > 100 µM | 
4.30 |  | CC[C@H](NC(=O)[C@@H]1C[C@@H](OCc2ccccc2)CN1C(=O)[C@@H](NC(=O)[C@@H](NC(=O)c1cnccn1)C(C)C)C(C)C)C(=O)C(C)=O |  | 
4.77 |  | CC[C@H](NC(=O)[C@@H]1C[C@@H](OCc2ccccc2)CN1C(=O)[C@@H](NC(=O)[C@@H](NC(=O)c1cnccn1)C(C)C)C(C)C)C(=O)C(=O)N[C@H](C)c1ccccc1 |  | 
< 4.30 |  | CCC(NC(=O)[C@@H]1C[C@@H](OCc2ccccc2)CN1C(=O)[C@H](NC(=O)[C@H](NC(=O)c1cnccn1)C(C)C)C(C)C)C(=O)CCl (stereo partly drawn) |  | 
5.33 |  | CCCC(NC(=O)[C@@H]1C[C@@H](OC(=O)N2CCc3ccccc3C2)CN1C(=O)[C@H](NC(=O)[C@H](NC(=O)c1cnccn1)C(C)C)C(C)C)C(=O)C(=O)NCc1ccco1 (stereo partly drawn) |  | 
6.28 | < 5.00 | CCCC(NC(=O)[C@@H]1C[C@@H](OC(=O)N2CCc3ccccc3C2)CN1C(=O)[C@H](NC(=O)[C@H](NC(=O)c1cnccn1)C(C)C)C(C)C)C(=O)C(=O)NC(C)C (stereo partly drawn) | > 100 µM | 
6.04 | < 5.32 | CC[C@H](NC(=O)[C@@H]1C[C@@H](OCc2ccccc2)CN1C(=O)[C@@H](NC(=O)[C@@H](NC(=O)c1cnccn1)C(C)C)C(C)C)C(=O)C(=O)N[C@@H](C)c1ccccc1 [listing 1 of 2 here] |  | 
5.16 |  | CCCC(NC(=O)[C@@H]1C[C@@H](OC(=O)N2CCc3ccccc3C2)CN1C(=O)[C@H](NC(=O)[C@H](NC(=O)c1cnccn1)C(C)C)C(C)C)C(=O)C(=O)NC(C)(C)C (stereo partly drawn) |  | 
6.54 | < 5.00 | CCCC(NC(=O)[C@@H]1C[C@@H](OC(=O)N2CCc3ccccc3C2)CN1C(=O)[C@H](NC(=O)[C@H](NC(=O)c1cnccn1)C(C)C)C(C)C)C(=O)C(=O)NCc1nnn[nH]1 (stereo partly drawn) | > 100 µM | 
< 4.30 |  | CC[C@H](NC(=O)[C@@H]1C[C@@H](OCc2ccccc2)CN1C(=O)[C@@H](NC(=O)[C@@H](NC(=O)c1cnccn1)C(C)C)C(C)C)C(=O)O (Pyrazinecarbonyl-VV[Hyp](Bn)[Abu]-OH) |  | 
< 4.30 |  | CCOC(=O)C(F)(F)C(=O)C(CC)NC(=O)C1CC(OCc2ccccc2)CN1C(=O)[C@H](NC(=O)[C@H](NC(=O)c1cnccn1)C(C)C)C(C)C (single isomer, unassigned) |  | 
 | < 5.00 | CCCC(NC(=O)[C@@H]1CC(OC(=O)N2CCc3ccccc3C2)CN1C(=O)[C@H](NC(=O)[C@H](NC(=O)c1cnccn1)C(C)C)C(C)C)C(=O)C(=O)c1ccccc1 (single isomer, unassigned) | > 100 µM | pKi [9]: > 6.70; pIC50 [1]: 7.59
5.80 |  | CCCC(NC(=O)[C@@H]1CC(OC(=O)N2CCc3ccccc3C2)CN1C(=O)[C@H](NC(=O)[C@H](NC(=O)c1cnccn1)C(C)C)C(C)C)C(=O)C(=O)N1C[C@@H]1c1ccccc1 (single isomer, unassigned) |  | 
6.01 | < 4.99 | CCCC(NC(=O)[C@@H]1CC(OC(=O)N2CCc3ccccc3C2)CN1C(=O)[C@H](NC(=O)[C@H](NC(=O)c1cnccn1)C(C)C)C(C)C)C(=O)C(=O)N1CCC1 (single isomer, unassigned) | > 100 µM | 

Continued, molecule first:

Structure (SMILES) | pKi (NS3) | pIC50 (Huh-7 [4]) | CC50 (Huh-7 [5]) | other results
CCCC(NC(=O)[C@@H]1C[C@@H](OC(=O)N2CCc3ccccc3C2)CN1C(=O)[C@H](NC(=O)[C@H](NC(=O)c1cnccn1)C(C)C)C(C)C)C(=O)C(=O)N[C@@H](C)C(=O)c1cccc2ccccc12 (stereo partly drawn) |  |  |  | pIC50 [1]: 6.12; pKi [2]: > 6.70
CCC(NC(=O)[C@@H]1C[C@@H](OCc2ccccc2)CN1C(=O)[C@H](NC(=O)[C@H](NC(=O)c1cnccn1)C(C)C)C(C)C)C(=O)C(F)(F)F (stereo partly drawn) | < 4.30 |  |  | 
CCCC(NC(=O)[C@@H]1C[C@@H](OC(=O)N2CCc3ccccc3C2)CN1C(=O)[C@H](NC(=O)[C@H](NC(=O)c1cnccn1)C(C)C)C(C)C)C(=O)C(=O)NCC(=O)O (stereo partly drawn) |  | < 5.00 | > 100 µM | pIC50 [6]: 7.43; pKi [7]: > 6.70
CC[C@H](NC(=O)[C@@H]1C[C@@H](OCc2ccccc2)CN1C(=O)[C@@H](NC(=O)[C@@H](NC(=O)c1cnccn1)C(C)C)C(C)C)C(=O)C(=O)NCc1ccccc1 | 5.40 |  |  | 
CC[C@@H](C=O)NC(=O)[C@@H]1CC(OC(=O)C2CCc3ccccc3C2)CN1C(=O)[C@@H](NC(=O)[C@@H](NC(=O)c1cnccn1)C(C)C)C(C)C (stereo partly drawn) |  |  |  | pKi [8]: 6.05
CCCC(NC(=O)[C@@H]1C[C@@H](OC(=O)N2CCc3ccccc3C2)CN1C(=O)[C@H](NC(=O)[C@H](NC(=O)c1cnccn1)C(C)C)C(C)C)C(=O)C(=O)NC(CO)C(=O)O (stereo partly drawn) | 6.27 |  |  | 
CCCC(NC(=O)[C@@H]1C[C@@H](OC(=O)N2CCc3ccccc3C2)CN1C(=O)[C@H](NC(=O)[C@H](NC(=O)c1cnccn1)C(C)C)C(C)C)C(=O)C(=O)NC1CC1 (stereo partly drawn) |  | < 5.64 | > 100 µM | pKi [7]: > 6.66; pIC50 [1]: 6.38
CC[C@H](NC(=O)[C@@H]1C[C@@H](OCc2ccccc2)CN1C(=O)[C@@H](NC(=O)[C@@H](NC(=O)c1cnccn1)C(C)C)C(C)C)C(=O)C(=O)c1ccccc1 | 5.00 |  |  | 
CC[C@H](NC(=O)[C@@H]1C[C@@H](OCc2ccccc2)CN1C(=O)[C@@H](NC(=O)[C@@H](NC(=O)c1cnccn1)C(C)C)C(C)C)C(=O)C(=O)C(C)C | 5.57 |  |  | 
CCCC(NC(=O)[C@@H]1C[C@@H](OC(=O)N2CCc3ccccc3C2)CN1C(=O)[C@H](NC(=O)[C@H](NC(=O)c1cnccn1)C(C)C)C(C)C)C(=O)C(=O)NCC#N (stereo partly drawn) | 5.95 |  |  | 
CCCC(NC(=O)[C@@H]1C[C@@H](OC(=O)N2CCc3ccccc3C2)CN1C(=O)[C@H](NC(=O)[C@H](NC(=O)c1cnccn1)C(C)C)C(C)C)C(=O)C(=O)NCCc1ccccc1 (stereo partly drawn) | 6.68 | < 5.00 | > 100 µM | pIC50 [1]: 6.28
CCCC(NC(=O)[C@@H]1C[C@@H](OC(=O)N2CCc3ccccc3C2)CN1C(=O)[C@H](NC(=O)[C@H](NC(=O)c1cnccn1)C(C)C)C(C)C)C(=O)C(=O)NCc1ccccc1 (stereo partly drawn) |  | < 5.49 | > 30 µM | pKi [7]: > 6.70; pIC50 [1]: 6.66
CCCC(NC(=O)[C@@H]1C[C@@H](OC(=O)N2CCc3ccccc3C2)CN1C(=O)[C@H](NC(=O)[C@H](NC(=O)c1cnccn1)C(C)C)C(C)C)C(=O)C(=O)NCC(=N)N (stereo partly drawn) | 5.24 |  |  | 
CC[C@H](NC(=O)[C@@H]1C[C@@H](OCc2ccccc2)CN1C(=O)[C@@H](NC(=O)[C@@H](NC(=O)c1cnccn1)C(C)C)C(C)C)C(=O)c1nnc(-c2ccccc2)o1 | 4.46 |  |  | 
CC[C@H](NC(=O)[C@@H]1C[C@@H](OCc2ccccc2)CN1C(=O)[C@@H](NC(=O)[C@@H](NC(=O)c1cnccn1)C(C)C)C(C)C)C(=O)C(=O)N[C@@H](C)c1ccccc1 [listing 2 of 2 here] |  |  | > 100 µM | 
CCCC(NC(=O)[C@@H]1C[C@@H](OC(=O)N2CCc3ccccc3C2)CN1C(=O)[C@H](NC(=O)[C@H](NC(=O)c1cnccn1)C(C)C)C(C)C)C(=O)C(=O)NC(C)C(=O)O (stereo partly drawn) |  |  |  | pIC50 [1]: 6.89; pKi [2]: 6.70
CCCC(NC(=O)[C@@H]1C[C@@H](OC(=O)N2CCc3ccccc3C2)CN1C(=O)[C@H](NC(=O)[C@H](NC(=O)c1cnccn1)C(C)C)C(C)C)C(=O)C(=O)N(CC(=O)O)c1ccccc1 (stereo partly drawn) | 5.79 |  |  | 
CC[C@@H](C=O)NC(=O)[C@@H]1C[C@@H](OCc2ccccc2)CN1C(=O)[C@@H](NC(=O)[C@@H](NC(=O)c1cnccn1)C(C)C)C(C)C (Pyrazinecarbonyl-VV[Hyp](Bn)[Abu]-aldehyde) | 4.80 |  |  | 
CCCC(NC(=O)[C@@H]1CC(OC(=O)N2CCc3ccccc3C2)CN1C(=O)[C@H](NC(=O)[C@H](NC(=O)c1cnccn1)C(C)C)C(C)C)C(=O)C(=O)Cc1ccccc1 (single isomer, unassigned) | 6.37 | < 5.00 | > 100 µM | 
